Values of other authors as cited in patent publication US20040005347A1, “Composition comprising cocoa” (N. V. NUTRICIA, priority 2001, published 2004).

Legend:
PMS related symptoms = details: supplementation
serotonin levels = details: in vitro

| Compound | PMS related symptoms, especially those related to mood (PMS related symptoms) | serotonin levels (serotonin levels) |
| --- | --- | --- |
| [Mg+2] [Magnesium] | improves | – |
| Cn1c(=O)c2c(ncn2C)n(C)c1=O [caffeine] | – | increase |
